ChEMBL document CHEMBL1128800, “Diastereoselective synthesis of mixanpril, an orally active dual inhibitor of neutral endopeptidase and angiotensin converting enzyme” (Bioorg Med Chem Lett, 1995)
Calls of active or inactive are those of the source. No cut-off for these calls is given here.

Experiments:
[1] = biological target: T1, Neprilysin (Rattus norvegicus) (UniProt P07861); experiment: Tested for inhibitory activity against neutral endopeptidase at a dose of 2.5 mg/kg in rats; Active; format: organism-based; parameters: dose 2.5 mg/kg
T1 sequence (whole entry): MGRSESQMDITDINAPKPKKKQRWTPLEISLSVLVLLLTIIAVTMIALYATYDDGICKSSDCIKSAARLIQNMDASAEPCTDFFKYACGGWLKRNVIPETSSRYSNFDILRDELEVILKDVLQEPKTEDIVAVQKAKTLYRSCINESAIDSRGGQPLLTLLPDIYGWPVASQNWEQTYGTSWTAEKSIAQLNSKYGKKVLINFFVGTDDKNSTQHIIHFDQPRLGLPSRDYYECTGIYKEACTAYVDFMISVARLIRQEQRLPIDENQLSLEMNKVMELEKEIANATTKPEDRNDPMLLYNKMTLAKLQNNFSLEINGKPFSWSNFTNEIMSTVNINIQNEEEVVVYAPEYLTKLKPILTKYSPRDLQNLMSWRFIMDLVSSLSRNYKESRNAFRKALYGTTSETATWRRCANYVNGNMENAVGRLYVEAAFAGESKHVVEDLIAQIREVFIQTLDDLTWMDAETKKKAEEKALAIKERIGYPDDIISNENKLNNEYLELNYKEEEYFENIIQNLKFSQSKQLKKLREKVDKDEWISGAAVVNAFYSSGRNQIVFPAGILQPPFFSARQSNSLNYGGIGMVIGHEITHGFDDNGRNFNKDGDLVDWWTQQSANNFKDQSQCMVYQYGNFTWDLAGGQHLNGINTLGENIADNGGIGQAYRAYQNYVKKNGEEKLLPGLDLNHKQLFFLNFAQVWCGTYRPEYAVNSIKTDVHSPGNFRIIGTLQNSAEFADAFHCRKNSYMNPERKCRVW

[2] = biological target: T2, Angiotensin-converting enzyme (Rattus norvegicus) (UniProt P47820); experiment: Effective dose against plasmatic angiotensin converting enzyme (ACE) in anaesthetized rats; settings: Plasma
T2 sequence (whole entry): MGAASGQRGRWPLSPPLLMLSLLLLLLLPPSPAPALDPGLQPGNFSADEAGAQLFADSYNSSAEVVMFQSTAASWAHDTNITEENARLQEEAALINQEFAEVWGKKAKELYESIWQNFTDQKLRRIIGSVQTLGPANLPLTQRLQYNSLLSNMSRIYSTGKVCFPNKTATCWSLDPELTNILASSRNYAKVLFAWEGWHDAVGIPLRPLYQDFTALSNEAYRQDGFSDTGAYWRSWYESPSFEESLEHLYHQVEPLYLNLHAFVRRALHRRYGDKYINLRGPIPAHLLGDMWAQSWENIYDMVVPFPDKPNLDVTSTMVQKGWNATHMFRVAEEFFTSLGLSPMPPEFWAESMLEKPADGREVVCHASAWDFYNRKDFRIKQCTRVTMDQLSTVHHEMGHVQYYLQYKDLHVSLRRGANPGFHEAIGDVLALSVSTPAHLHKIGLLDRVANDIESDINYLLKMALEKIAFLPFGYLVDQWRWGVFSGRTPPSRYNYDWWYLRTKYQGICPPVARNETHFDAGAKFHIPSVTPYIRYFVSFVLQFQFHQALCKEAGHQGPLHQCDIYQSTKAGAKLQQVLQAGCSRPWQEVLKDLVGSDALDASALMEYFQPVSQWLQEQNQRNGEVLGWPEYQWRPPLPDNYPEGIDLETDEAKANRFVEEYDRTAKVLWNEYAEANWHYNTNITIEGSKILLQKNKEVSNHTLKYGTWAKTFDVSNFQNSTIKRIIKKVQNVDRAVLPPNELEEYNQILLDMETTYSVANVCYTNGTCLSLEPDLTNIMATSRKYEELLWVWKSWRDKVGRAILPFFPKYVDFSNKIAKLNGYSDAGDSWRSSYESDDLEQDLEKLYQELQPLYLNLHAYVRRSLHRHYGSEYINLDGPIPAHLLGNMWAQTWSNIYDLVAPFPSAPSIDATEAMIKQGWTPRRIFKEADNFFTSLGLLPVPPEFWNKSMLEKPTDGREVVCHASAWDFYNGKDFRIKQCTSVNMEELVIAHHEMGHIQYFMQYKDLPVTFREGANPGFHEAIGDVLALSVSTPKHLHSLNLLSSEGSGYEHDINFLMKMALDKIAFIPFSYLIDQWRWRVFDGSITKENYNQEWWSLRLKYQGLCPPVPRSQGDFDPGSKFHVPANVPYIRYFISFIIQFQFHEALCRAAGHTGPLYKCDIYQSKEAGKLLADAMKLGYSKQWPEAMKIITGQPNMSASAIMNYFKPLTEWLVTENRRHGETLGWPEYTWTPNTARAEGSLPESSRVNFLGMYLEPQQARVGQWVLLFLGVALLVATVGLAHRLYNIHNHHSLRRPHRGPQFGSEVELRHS

[3] = biological target: T2, Angiotensin-converting enzyme (Rattus norvegicus); experiment: […] inhibitory activity against plasmatic angiotensin converting enzyme (ACE) in anaesthetized rats after oral administration of 150 mg/kg dose; format: organism-based; parameters: dose 150 mg/kg
[4] = biological target: T2, Angiotensin-converting enzyme (Rattus norvegicus); experiment: […] inhibitory activity against plasmatic angiotensin converting enzyme (ACE) in anaesthetized rats after oral administration of 5 mg/kg dose; format: organism-based; parameters: dose 5 mg/kg
[5] = biological target: T2, Angiotensin-converting enzyme (Rattus norvegicus); experiment: […] inhibitory activity against plasmatic angiotensin converting enzyme (ACE) in anaesthetized rats after oral administration of 50 mg/kg dose; format: organism-based; parameters: dose 50 mg/kg
[6] = biological target: T2, Angiotensin-converting enzyme (Rattus norvegicus); experiment: […] inhibitory activity against plasmatic angiotensin converting enzyme (ACE) in anaesthetized rats after oral administration of 10 mg/kg dose; format: organism-based; parameters: dose 10 mg/kg
[7] = biological target: T2, Angiotensin-converting enzyme (Rattus norvegicus); experiment: […] inhibitory activity against plasmatic angiotensin converting enzyme (ACE) in anaesthetized rats after oral administration of 100 mg/kg dose; format: organism-based; parameters: dose 100 mg/kg
[8] = biological target: T2, Angiotensin-converting enzyme (Rattus norvegicus); experiment: […] inhibitory activity against plasmatic angiotensin converting enzyme (ACE) in anaesthetized rats after oral administration of 2.5 mg/kg dose; format: organism-based; parameters: dose 2.5 mg/kg
[9] = biological target: T2, Angiotensin-converting enzyme (Rattus norvegicus); experiment: […] inhibitory activity against plasmatic angiotensin converting enzyme (ACE) in anaesthetized rats after oral administration of 25 mg/kg dose; format: organism-based; parameters: dose 25 mg/kg

Activity [1]: Active
ED50 [2]: 12 mg/kg
inhibition [3]: 82%
inhibition [4]: 35%
inhibition [5]: 65%
inhibition [6]: 50%
inhibition [7]: 70%
inhibition [8]: 25%
inhibition [9]: 55%
SMILES: CC(NC(=O)C(CSC(=O)c1ccccc1)C(C)c1ccccc1)C(=O)O (centres undefined)
